Experimental data: ChEMBL document CHEMBL3217688, “Structure-based design, synthesis, and profiling of potent and selective neuronal nitric oxide synthase (nNOS) inhibitors with an amidinothiophene hydroxypiperidine scaffold” (Medchemcomm, 2011)

Columns and labels:
Nitric oxide synthase 1 = Nitric oxide synthase 1 (Rattus norvegicus, UniProt P29476); test: Inhibition of recombinant rat nNOS assessed as conversion of L-arginine to citrulline after 30 mins
Nitric oxide synthase 3 = Nitric oxide synthase 3 (Homo sapiens, UniProt P29474); test: Inhibition of eNOS (unknown origin)
[1] = Selectivity ratio of IC50 for eNOS (unknown origin) to IC50 for recombinant rat nNOS
[2] = Drug metabolism in human liver microsomes after 20 mins; assay type: ADME; conditions: read-out: Drug metabolism

Sequence of Nitric oxide synthase 1 (P29476 whole entry): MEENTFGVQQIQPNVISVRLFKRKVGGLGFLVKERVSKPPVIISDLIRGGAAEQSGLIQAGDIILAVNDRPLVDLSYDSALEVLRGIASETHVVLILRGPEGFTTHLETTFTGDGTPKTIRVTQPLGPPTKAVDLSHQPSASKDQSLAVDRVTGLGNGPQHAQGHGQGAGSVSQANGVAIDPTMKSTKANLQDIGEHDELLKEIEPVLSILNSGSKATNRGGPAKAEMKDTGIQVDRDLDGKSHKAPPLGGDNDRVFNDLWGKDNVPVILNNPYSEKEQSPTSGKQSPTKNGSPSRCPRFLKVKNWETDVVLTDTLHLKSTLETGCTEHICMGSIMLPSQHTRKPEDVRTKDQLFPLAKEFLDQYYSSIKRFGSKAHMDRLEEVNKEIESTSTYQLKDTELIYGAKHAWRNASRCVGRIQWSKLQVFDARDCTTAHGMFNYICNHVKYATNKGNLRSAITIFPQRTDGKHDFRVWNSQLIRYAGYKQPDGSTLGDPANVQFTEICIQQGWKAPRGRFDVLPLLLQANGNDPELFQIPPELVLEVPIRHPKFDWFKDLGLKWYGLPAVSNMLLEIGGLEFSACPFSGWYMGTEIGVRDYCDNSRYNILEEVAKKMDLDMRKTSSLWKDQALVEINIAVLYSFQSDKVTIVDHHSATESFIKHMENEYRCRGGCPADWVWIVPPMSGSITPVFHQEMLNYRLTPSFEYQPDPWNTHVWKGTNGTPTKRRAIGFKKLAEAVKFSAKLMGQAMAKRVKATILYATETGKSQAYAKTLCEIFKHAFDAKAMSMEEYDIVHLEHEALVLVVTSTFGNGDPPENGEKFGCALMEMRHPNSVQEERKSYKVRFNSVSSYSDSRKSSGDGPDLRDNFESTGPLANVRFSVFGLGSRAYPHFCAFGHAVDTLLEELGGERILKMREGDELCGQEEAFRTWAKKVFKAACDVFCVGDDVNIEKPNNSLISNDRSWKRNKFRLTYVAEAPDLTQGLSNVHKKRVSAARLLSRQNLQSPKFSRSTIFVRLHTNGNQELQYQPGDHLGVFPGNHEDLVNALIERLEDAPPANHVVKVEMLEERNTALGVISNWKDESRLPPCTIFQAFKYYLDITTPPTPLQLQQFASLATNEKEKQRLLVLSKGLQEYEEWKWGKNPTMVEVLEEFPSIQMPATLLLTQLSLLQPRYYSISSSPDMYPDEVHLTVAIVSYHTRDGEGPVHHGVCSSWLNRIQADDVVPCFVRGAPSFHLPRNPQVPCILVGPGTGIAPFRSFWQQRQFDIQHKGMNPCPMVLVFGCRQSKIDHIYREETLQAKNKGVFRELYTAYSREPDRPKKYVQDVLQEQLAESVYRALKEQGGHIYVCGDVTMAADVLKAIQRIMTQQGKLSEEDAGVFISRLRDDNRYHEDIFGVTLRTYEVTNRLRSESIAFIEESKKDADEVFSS
Sequence of Nitric oxide synthase 3 (P29474 whole entry, looked up): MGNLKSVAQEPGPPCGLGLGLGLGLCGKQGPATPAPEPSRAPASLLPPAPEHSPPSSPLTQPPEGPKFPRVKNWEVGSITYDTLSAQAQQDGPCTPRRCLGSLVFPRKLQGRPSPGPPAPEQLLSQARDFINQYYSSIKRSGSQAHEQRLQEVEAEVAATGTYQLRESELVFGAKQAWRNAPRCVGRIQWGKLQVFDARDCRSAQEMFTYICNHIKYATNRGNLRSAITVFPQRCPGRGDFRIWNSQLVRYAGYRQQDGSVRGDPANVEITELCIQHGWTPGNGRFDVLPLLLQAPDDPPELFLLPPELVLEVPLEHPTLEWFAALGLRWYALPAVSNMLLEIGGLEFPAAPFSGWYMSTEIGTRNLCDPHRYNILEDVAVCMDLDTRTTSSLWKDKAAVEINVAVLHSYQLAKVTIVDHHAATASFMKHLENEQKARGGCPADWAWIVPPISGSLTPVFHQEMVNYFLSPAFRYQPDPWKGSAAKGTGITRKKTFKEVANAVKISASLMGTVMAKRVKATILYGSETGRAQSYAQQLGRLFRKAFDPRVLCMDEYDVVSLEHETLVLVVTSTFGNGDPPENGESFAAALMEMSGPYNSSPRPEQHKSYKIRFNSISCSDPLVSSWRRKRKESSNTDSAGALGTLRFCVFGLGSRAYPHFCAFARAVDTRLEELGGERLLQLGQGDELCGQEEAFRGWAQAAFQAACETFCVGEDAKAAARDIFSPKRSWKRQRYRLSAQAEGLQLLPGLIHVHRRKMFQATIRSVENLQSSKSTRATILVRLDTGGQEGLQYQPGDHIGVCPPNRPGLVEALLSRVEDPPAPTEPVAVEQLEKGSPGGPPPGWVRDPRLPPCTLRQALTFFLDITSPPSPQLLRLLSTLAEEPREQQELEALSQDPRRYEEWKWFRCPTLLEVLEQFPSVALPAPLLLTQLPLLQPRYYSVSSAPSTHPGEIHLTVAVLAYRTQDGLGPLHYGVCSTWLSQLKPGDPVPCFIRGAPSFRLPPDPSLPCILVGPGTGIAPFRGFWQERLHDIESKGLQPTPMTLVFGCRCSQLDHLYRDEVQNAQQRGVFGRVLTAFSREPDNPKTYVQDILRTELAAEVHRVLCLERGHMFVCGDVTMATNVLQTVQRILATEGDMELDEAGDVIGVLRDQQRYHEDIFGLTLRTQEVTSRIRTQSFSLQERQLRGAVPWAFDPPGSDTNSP

Row | IC50 (Nitric oxide synthase 1) [µM] | IC50 (Nitric oxide synthase 3) [µM] | Ratio IC50 [1] | metabolised at 20 min [2] [%] | SMILES
1 | 0.694 | 10 | 14 | 54 | CCCCNC(=O)N1CCC(O)(c2cccc(NC(=N)c3cccs3)c2)CC1
2 | 0.551 | 23 | 42 | 16 | CC(C)S(=O)(=O)N1CCC(O)(c2cccc(NC(=N)c3cccs3)c2)CC1
3 | 0.376 | 60.1 | 159 | 77 | N=C(Nc1cccc(C2(O)CCN(C(=O)OCc3ccccc3)CC2)c1)c1cccs1
4 | 0.706 | 18.2 | 26 | 25 | CCCS(=O)(=O)N1CCC(O)(c2cccc(NC(=N)c3cccs3)c2)CC1

Row | SMILES | IC50 (Nitric oxide synthase 1) [µM] | IC50 (Nitric oxide synthase 3) [µM] | Ratio IC50 [1] | metabolised at 20 min [2] [%]
5 | N=C(Nc1cccc(C2(O)CCN(CCc3cccc(Cl)c3Cl)CC2)c1)c1cccs1 | 0.129 | 100 | 775 | 23
6 | N=C(Nc1cccc(C2(O)CCN(CCc3cccc(Cl)c3)CC2)c1)c1cccs1 | 0.131 | 57.5 | 438 | 39
7 | N=C(Nc1cccc(C2(O)CCN(CCc3ccc(Cl)c(Cl)c3)CC2)c1)c1cccs1 | 0.017 | 28.3 | 1660 | 32
